These are literature values, as cited in patent US9730930B2, “Treatment for vitiligo” (Rigel Pharmaceuticals, Inc., priority 2012, dated 2017).

The subject of the data set is other cytokine (IL-1β and TNFα) signaling.

The structures appear in SMILES notation.

Turning to `C#CCOc1ccc(Nc2nc(Nc3ccc(C)c(S(N)(=O)=O)c3)ncc2F)cc1` [Compound I, N2-(3-aminosulfonyl-4-methylphenyl)-5-fluoro-N4-[4-(prop-2-ynyloxy)phenyl]-2,4-pyrimidinediamine], the “activity on other cytokine (IL-1β and TNFα) signaling” value is “little or no activity”.
